Results: patent EP0446604A2, “Pyridine and related aza heterocycle derivatives as cardiovascular agents” (AMERICAN CYANAMID COMPANY, priority 1990, dated 1991)
Counter-ions that a name gives are not always drawn.

Assays:
[1] = tested on: spontaneously hypertensive rats of the Okamoto strain; test: Hypotensive activity in spontaneously hypertensive rats (method of Chan and Poorvin); format: in vivo; details: by gavage, 100 mg/kg or less, second identical dose 24 hours later, MABP measured 28 hours after initial dose, average MABP of the rats used 160±1.5 mm of mercury
Description: The novel compounds of the present invention are active hypotensive agents and were tested for hypotensive activity by the method of P.S. Chan and D. Poorvin, Clinical and Experimental Hypertension, 1 (6), 817-830 (1979). Male, 16 week old, spontaneously hypertensive rats of the Okamoto strain, from Taconic Farms, Germantown, New York, having an average mean arterial blood pressure of 160±1.5 mm of mercury, were used in the test. One to four rats were used per test compound. A rat is dosed by gavage with a test compound suspended in 2% pre-boiled starch at a concentration of 50 mg/ml, at a dose of 100 mg/kg of body weight or less, with 0.9% sodium chloride loading at a dose of 25 ml/kg of body weight. A second identical dose of the test compound, without sodium chloride loading is given 24 hours later. At 28 hours after the initial dose the mean arterial blood pressure (MABP) is measured. The procedure is repeated in a second and third rat when necessary. The results of this test on representative compounds of the present invention appear below in Table II.

[2] = target: T1, thromboxane synthetase enzyme (Rattus norvegicus, UniProt P49430); test: Inhibition of thromboxane (TXB2) formation in washed rat platelets, TXB2 radioimmunoassay; format: biochemical, Okamoto-Aoki spontaneously hypertensive rats (SHR); details: Concentration 1x10^-4M, platelet suspension incubated 10 minutes at 37 °C
T1 construct: from tissue; host or cells: washed blood platelets from Okamoto-Aoki spontaneously hypertensive rats (SHR)
T1 sequence (P49430 1-533): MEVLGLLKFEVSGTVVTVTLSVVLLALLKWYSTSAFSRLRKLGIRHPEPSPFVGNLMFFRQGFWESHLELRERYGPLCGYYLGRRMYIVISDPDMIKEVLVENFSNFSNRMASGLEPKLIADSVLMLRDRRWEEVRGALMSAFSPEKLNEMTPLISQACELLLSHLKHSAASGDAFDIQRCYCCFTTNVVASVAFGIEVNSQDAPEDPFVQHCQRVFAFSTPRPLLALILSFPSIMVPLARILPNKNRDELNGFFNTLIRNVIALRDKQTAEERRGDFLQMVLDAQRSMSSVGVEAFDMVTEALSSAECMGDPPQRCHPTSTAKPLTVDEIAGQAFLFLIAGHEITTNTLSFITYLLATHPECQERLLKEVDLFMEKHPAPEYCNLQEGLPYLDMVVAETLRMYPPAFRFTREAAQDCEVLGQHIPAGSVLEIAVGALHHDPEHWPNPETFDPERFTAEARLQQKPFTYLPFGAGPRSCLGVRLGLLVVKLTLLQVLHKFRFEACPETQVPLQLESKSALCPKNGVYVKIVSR
Description: Under urethan anesthesia, […] of arterial blood from Okamoto-Aoki spontaneously hypertensive rats (SHR) (Taconic Farms, Germantown, NY) between 19 and 24 weeks in age is collected in one ml of 3.2% sodium citrate in a polystyrene tube. The blood is diluted with 3 ml of cold saline and centrifuged at room temperature for 15 minutes at 460xg. The platelet rich plasma (PRP) is separated. The platelets are isolated by centrifuging the PRP for 10 minutes at 1060xg and are washed in 4 ml of cold oxygenated Krebs phosphate buffer, pH 7.4. The chilled platelets, recovered from centrifuging at 800xg for 10 minutes, are resuspended in oxygenated Krebs phosphate buffer and diluted to contain 4.5-6.0 x 10⁴ platelets/µ1. The inhibition of thromboxane (TX) formation is studied by determining the concentration of thromboxane B₂ (TXB₂), the stable hydrolysis product of TXA₂. Assay samples, prepared on ice, contain 200 µ1 platelet suspension, 50 µ1 saline, and 50 µ1 vehicle (saline) or drug under study. The samples are incubated for 10 minutes at 37 °C in a metabolic shaker. The reaction is terminated by immersing the tubes in an ice bath and adding 50 µl of 0.5M citric acid. The samples are centrifuged for 10 minutes in a refrigerated centrifuge and the supernatants thus obtained are decanted and stored at -20 °C. The TXB₂ content for each sample is determined by a direct radioimmunoassay (RIA) utilizing a TXB₂ specific RIA kit purchased from New England Nuclear, Boston, MA and expressed as pg TXB₂ formed per minute per sample, from which the percent inhibition of TXB₂ formation is calculated.

[3] = tested on: Male mice of the Swiss Webster Strain; test: Calcium chloride-induced arrhythmia in anesthetized mice (survival); format: in vivo; details: Mus musculus, iv, Dose = 10 mg/kg i.v.; calcium chloride 200 mg/kg i.v. bolus 5, 15 or 30 minutes after drug; observed 15 minutes; read-out: CaCl2 #Mice Surviving #Mice Tested (converted)
From the text: (§1) Intravenous administration of high doses of calcium or potassium chloride in animals produces cardiac arrhythmias, cardiac fibrillation and cardiac arrest. Any agent that can prevent these events is considered an antiarrhythmic/antifibrillatory agent. (Meth. and Find Exptl. Clin Pharmacol.2:223-252(1980); Pharmacol, Ther. 24:401-433 (1984); Experimental Cardiac and Antiarrhythmic Drugs, L. Szekeres and Gy. J. Dapp, Akademiai Kiado Preso, Budapest, 9-448 (1971).)
(§2) The method employed is as follows: Male mice of the Swiss Webster Strain (Charles River, Wilmington, MA) weighing 25-35 g are anesthetized with ethyl carbamate (urethan) (1.5g/kg body weight i.p.). A 25-gauge needle attached to PE-20 tubing is inserted into a caudal vein for drug administration. The lead II ECG is recorded by needle electrodes placed subcutaneously in the limbs. All data is collected on a Gould Brush recorder. Animals are observed 5 minutes before drug administration. A 5, 15, or 30 minute period following drug administration is allowed before the bolus injection of calcium chloride, 200 mg/kg i.v. or potassium chloride, 62.5 mg/kg i.v. Control mice receive 4 ml/kg of 0.9% sodium chloride i.v. Mice are observed an additional 15 minutes for arrhythmias, fibrillation, survival or death. Any compound at a dose of less than 20 mg/kg i.v. that protects 3 out of 6 mice from cardiac death in either the potassium or calcium chloride test, is considered active.

[4] = tested on: Male mice of the Swiss Webster Strain; test: Potassium chloride-induced arrhythmia in anesthetized mice (survival); format: in vivo; details: Mus musculus, iv, Dose = 10 mg/kg i.v.; potassium chloride 62.5 mg/kg i.v. bolus 5, 15 or 30 minutes after drug; observed 15 minutes; read-out: KCl #Mice Surviving #Mice Tested (converted)
From the text: as §1, §2

Q: What does the source list for `c1ccc2c(c1)nc(NCCCn1ccnc1)c1ccccc12` [Example 8, N-[3-(1H-Imidazol-1-yl)propyl]-6-phenanthridinamine]?
A: Avg. MABP in mm Hg (No. of Rats) [1]: 103 (2) mm Hg; inhibition at 100 µM [2]: 100%; responders at 10 mg/kg [3]: 33.3%; responders at 10 mg/kg [4]: 100%

Q: With `Cc1cc(NCCCc2cccnc2)nc2ccccc12.Cl.Cl` [Example 98, 4-Methyl-N-[3-(3-pyridinyl)propyl]-2-quinolinamine, dihydrochloride] as the compound, how does the “Avg. MABP in mm Hg (No. of Rats)” value [1] read?
A: 95 (2) mm Hg

Q: What about the responders at 10 mg/kg [3] of the same compound?
A: 83.3%

Q: What about the responders at 10 mg/kg [4] of the same compound?
A: 83.3%

Q: `c1cn(CCCNc2ccc3sccc3n2)cn1` [Example 62, N-[3-(1H-Imidazol-1-yl)propyl]thieno[3,2-b]-pyridin-5-amine] was tested. Which “Avg. MABP in mm Hg (No. of Rats)” value [1] did it give?
A: 105 (2) mm Hg

Q: What about the inhibition at 100 µM [2] of the same compound?
A: 91%

Q: How did the “Avg. MABP in mm Hg (No. of Rats)” value [1] turn out when `c1ccc2nc(NCCCn3ccnc3)ccc2c1` [Example 5, N-[3-(1H-Imidazol-1-yl)propyl]-2-quinolinamine] was run?
A: 97 (2) mm Hg

Q: And the inhibition at 100 µM [2]?
A: 93%

Q: What about the responders at 10 mg/kg [3] of the same compound?
A: 83.3%

Q: What about the responders at 10 mg/kg [4] of the same compound?
A: 50%

Q: For `Cc1cc(NCC(C)Cn2ccnc2)nc2ccccc12` (centres unmarked) [Example 88, N-[3-(1H-Imidazol-1-yl)-2-methylpropyl]-4-methyl-2-quinolinamine], which “Avg. MABP in mm Hg (No. of Rats)” value [1] is on record?
A: 96 (2) mm Hg

Q: What about the inhibition at 100 µM [2] of the same compound?
A: 98%

Q: What about the responders at 10 mg/kg [3] of the same compound?
A: 16.7%

Q: And the responders at 10 mg/kg [4]?
A: 83.3%

Q: With `Cc1ccc(C#N)c(NCCCCCn2ccnc2)n1` [Example 90, 2-[[5-(1H-Imidazol-1-yl)pentyl]amino]-6-methyl-3-pyridinecarbonitrile] as the compound, how does the “Avg. MABP in mm Hg (No. of Rats)” value [1] read?
A: 116 (2) mm Hg

Q: And the responders at 10 mg/kg [3]?
A: 0%

Q: And the responders at 10 mg/kg [4]?
A: 50%

Q: With `c1ccc2c(c1)nc(NCCCCn1ccnc1)c1ccccc12` [Example 104, N-[4-(1H-Imidazol-1-yl)butyl]-6-phenanthridinamine] as the compound, how does the “Avg. MABP in mm Hg (No. of Rats)” value [1] read?
A: 93 (1) mm Hg

Q: Which “Avg. MABP in mm Hg (No. of Rats)” value [1] does the source give for `c1ccc2c(NCCCn3ccnc3)nccc2c1` [Example 14, N-[3-(1H-Imidazol-1-yl)propyl]-1-isoquinolinamine] here?
A: 121 (3) mm Hg

Q: And the inhibition at 100 µM [2]?
A: 84%

Q: `Cc1cc(NCCCCc2cccnc2)nc2ccccc12` [Example 103, 4-Methyl-N-4-(3-pyridinylbutyl)-2-quinolinamine, dihydrochloride] was tested. Which “Avg. MABP in mm Hg (No. of Rats)” value [1] did it give?
A: 87 (2) mm Hg

Q: Which results are given for `Cc1cc(NCCCn2ccnc2)nc2ccccc12` [Example 6, N-[3-(1H-Imidazol-1-yl)propyl]-4-methyl-2-quinolinamine]?
A: Avg. MABP in mm Hg (No. of Rats) [1]: 100 (3) mm Hg; inhibition at 100 µM [2]: 98%

Q: With `O=[N+]([O-])c1cccnc1NCCCn1ccnc1` [Example 2, N-[3-(1H-Imidazol-1-yl)propyl]-3-nitro-2-pyridinamine] as the compound, how does the “Avg. MABP in mm Hg (No. of Rats)” value [1] read?
A: 98 (2) mm Hg

Q: And the inhibition at 100 µM [2]?
A: 80%

Q: What about the responders at 10 mg/kg [3] of the same compound?
A: 50%

Q: And the responders at 10 mg/kg [4]?
A: 66.7%

Q: Which results are given for `CC(CNc1nc2ccccc2c2ccccc12)Cn1ccnc1` (centres unmarked) [Example 86, N-[3-(1H-Imidazol-1-yl)-2-methylpropyl]-6-phenanthridinamine]?
A: Avg. MABP in mm Hg (No. of Rats) [1]: 114 (2) mm Hg; inhibition at 100 µM [2]: 100%; responders at 10 mg/kg [3]: 16.7%; responders at 10 mg/kg [4]: 50%

Q: How did the “Avg. MABP in mm Hg (No. of Rats)” value [1] turn out when `Cc1ccc(C#N)c(NCCCn2ccnc2)n1` [Example 3, 2-[[3-(1H-Imidazol-1-yl)propyl]amino]-6-methyl-3-pyridinecarbonitrile] was run?
A: 80 (2) mm Hg

Q: What about the inhibition at 100 µM [2] of the same compound?
A: 79%

Q: `N#Cc1cc2ccccc2nc1NCCCn1ccnc1` [Example 82, 2-[[3-(1H-Imidazol-1-yl)propyl]amino]-3-quinolinecarbonitrile] was tested. Which “Avg. MABP in mm Hg (No. of Rats)” value [1] did it give?
A: 94 (2) mm Hg

Q: For `Cc1cc(NCCC(C)n2ccnc2)nc2ccccc12` (centres unmarked) [Example 87, N-[3-(1H-Imidazol-1-yl)butyl]-4-methyl-2-quinolinamine], which “Avg. MABP in mm Hg (No. of Rats)” value [1] is on record?
A: 111 (2) mm Hg

Q: What does the source list for `COc1ccc2nc(NCCCCc3cccnc3)cc(C)c2c1` [Example 106, 6-Methoxy-4-methyl-N-[4-(3-pyridinyl)butyl]-2-quinolinamine]?
A: Avg. MABP in mm Hg (No. of Rats) [1]: 120 (2) mm Hg; inhibition at 100 µM [2]: 97%

Q: For `COc1ccc2nc(NCCCn3ccnc3)cc(C)c2c1` [Example 21, N-[3-(1H-Imidazol-1-yl)propyl]-6-methoxy-4-methyl-2-quinolinamine], which “Avg. MABP in mm Hg (No. of Rats)” value [1] is on record?
A: 110 (2) mm Hg

Q: And the inhibition at 100 µM [2]?
A: 97%

Q: What does the source list for `O=[N+]([O-])c1ccc(NCCCn2ccnc2)nc1` [Example 11, N-[3-(1H-imidazol-1-yl)propyl]-5-nitro-2-pyridinamine]?
A: Avg. MABP in mm Hg (No. of Rats) ([1]; 100 mg/kg): 119 (2) mm Hg; responders at 10 mg/kg [3]: 0%; responders at 10 mg/kg [4]: 50%

Q: With `O=[N+]([O-])c1ccc(NCCCn2ccnc2)nc1` [Example 1, N-[3-(1H-Imidazol-1-yl)propyl]-5-nitro-2-pyridinamine,(Z)-2-butenedioate (1:1)] as the compound, how does the “Avg. MABP in mm Hg (No. of Rats)” value ([1]; 100 mg/kg) read?
A: 121 (4) mm Hg

Q: `Cc1ccc(C#N)c(NCCCCc2cccnc2)n1` [Example 108, 6-Methyl-2-[[4-(3-pyridinyl)butyl]amino]-3-pyridinecarbonitrile] was tested. Which inhibition at 100 µM [2] did it give?
A: 96%

Q: What about the responders at 10 mg/kg [3] of the same compound?
A: 66.7%

Q: What about the responders at 10 mg/kg [4] of the same compound?
A: 83.3%

Q: With `Cc1cc(NCCCCn2ccnc2)nc2ccccc12` [Example 101, N-[4-(1H-Imidazol-1-yl)butyl]-4-methyl-2-quinolinamine] as the compound, how does the “Avg. MABP in mm Hg (No. of Rats)” value [1] read?
A: 96 (2) mm Hg

Q: With `Cc1cc(NCCCCc2cccnc2)nc2c(C)cccc12` [Example 107, 4,8-Dimethyl-N-[4-(3-pyridinyl)butyl]-2-quinolinamine] as the compound, how does the inhibition at 100 µM [2] read?
A: 99%

Q: And the responders at 10 mg/kg [3]?
A: 0%

Q: And the responders at 10 mg/kg [4]?
A: 83.3%

Q: Which inhibition at 100 µM [2] does the source give for `Cc1cc(NCCCn2ccnc2)nc2nc(N)ccc12` [Example 34, N²-[3-(1H-Imidazol-1-yl)propyl]-4-methyl-1,8-naphthyridine-2,7-diamine] here?
A: 98%

Q: What about the responders at 10 mg/kg [3] of the same compound?
A: 50%

Q: And the responders at 10 mg/kg [4]?
A: 66.7%
